Measurements as given in US7713954B2, “Compositions and methods for treating cognitive disorders” (Roche Palo Alto LLC, priority 2004, dated 2010).
Where two headings read alike, the source gives them in different places.

Legend:
[1] = biological target: T1, human recombinant M1 (Homo sapiens, UniProt P11229); assay: Binding affinity at Muscarinic M1 receptor; settings: read-out: Receptor Affinity (pKi) Muscarinic M1 (converted)
T1 sequence (P11229 1-460): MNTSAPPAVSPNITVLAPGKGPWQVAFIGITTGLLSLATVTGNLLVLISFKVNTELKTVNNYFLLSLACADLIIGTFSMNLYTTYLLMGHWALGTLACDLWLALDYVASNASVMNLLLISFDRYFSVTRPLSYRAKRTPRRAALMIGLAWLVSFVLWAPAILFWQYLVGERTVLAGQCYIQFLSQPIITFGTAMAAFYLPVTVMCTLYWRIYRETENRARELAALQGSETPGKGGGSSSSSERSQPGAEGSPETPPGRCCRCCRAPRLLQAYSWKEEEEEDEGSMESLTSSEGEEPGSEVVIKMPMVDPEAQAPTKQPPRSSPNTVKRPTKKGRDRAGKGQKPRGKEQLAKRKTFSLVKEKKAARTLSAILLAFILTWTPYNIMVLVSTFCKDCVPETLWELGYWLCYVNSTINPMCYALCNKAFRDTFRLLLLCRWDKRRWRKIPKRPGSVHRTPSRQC

[2] = biological target: T2, human recombinant M2 (Homo sapiens, UniProt P08172); assay: Binding affinity at Muscarinic M2 receptor; settings: read-out: Receptor Affinity (pKi) Muscarinic M2 (converted)
T2 sequence (P08172 1-466): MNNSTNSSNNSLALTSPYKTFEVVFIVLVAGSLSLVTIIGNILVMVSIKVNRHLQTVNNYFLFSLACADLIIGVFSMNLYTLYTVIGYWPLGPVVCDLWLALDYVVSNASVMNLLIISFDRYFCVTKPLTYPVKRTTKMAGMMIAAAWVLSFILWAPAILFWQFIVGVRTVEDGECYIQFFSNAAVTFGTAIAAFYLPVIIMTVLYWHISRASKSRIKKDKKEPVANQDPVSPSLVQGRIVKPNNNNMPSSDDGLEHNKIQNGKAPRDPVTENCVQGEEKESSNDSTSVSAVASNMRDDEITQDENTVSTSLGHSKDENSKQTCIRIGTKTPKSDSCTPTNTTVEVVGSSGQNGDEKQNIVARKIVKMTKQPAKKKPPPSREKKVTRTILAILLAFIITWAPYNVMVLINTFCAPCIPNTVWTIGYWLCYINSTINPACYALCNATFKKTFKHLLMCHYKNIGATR

[3] = system: male Wistar rats; assay: Novel object recognition model, scopolamine-induced memory impairment; format: in vivo, rat; settings: for reversal of the memory impairment induced by scopolamine (discrimination index d2): 90 or 60 mins prior to scopolamine 0.1 mg/kg ip; for reversal of scopolamine-induced memory impairment (discrimination index d2): with scopolamine 0.1 mg/kg sc, 30 mins prior to re-release
Method: Twenty-four 5-month-old male Wistar rats were used. The animals were housed individually in standard Makrolon cages on sawdust bedding in an air-conditioned room (about 20° C.). They were kept under a 12/12-hour light/dark cycle (lights on from 18.00 to 6.00 h) and had free access to food and water. Rats were housed and test in different rooms. A radio, which was playing softly, provided background noise in all rooms. All testing was done between 9.00 and 16.00 h.
Scopolamine hydrobromide was prepared daily and dissolved in saline. […] (injection volume 1 ml/kg) 30 minutes before trial 1. Test compounds were prepared daily and dissolved in saline, and the pH was adjusted to pH 5-7 using (0.1 N) NaOH. The compounds were administered orally or i.p. over a range of doses to n=12-24 animals per dose (injection volume 1 ml/kg). Time of dosing prior to first trial (T1) can be chosen to match the expected plasma Cmax for the compound. Administration was always given i.p. (injection volume 1 ml/kg).
The object recognition test was performed as described by Ennaceur and Delacour, Behav. Brain Res., 1988, 31, 47-59. This test measures the memory of an animal, by testing the ability of the animal to recognize that there is a new object in its environment. The apparatus consisted of a circular arena, 83 cm in diameter. Half of the 40 cm high wall was made of gray polyvinyl chloride, the other half of transparent polyvinyl chloride. The light intensity was equal in the different parts of the apparatus. Two objects were placed in a symmetrical position about 10 cm away from the gray wall. Each object was available in triplicate. Four different sets of objects were used: 1) a cone consisting of a gray polyvinyl chloride base (maximal diameter 18 cm) with a brass collar on top (total height 16 cm), 2) a standard 1 l transparent glass bottle (diameter 10 cm, height 22 cm) filled with sand, 3) a massive metal block (10.0×5.0×7.5 cm) with two holes (diameter 1.9 cm), and 4) a massive aluminum block with a tapering top (13.0×8.0×8.0 cm). A rat could not displace the objects. Fluorescent red tubes and a light bulb provided a constant illumination of about 20 lux on the floor of the apparatus.
A testing session comprised two trials. The duration of each trial was 3 min. During the first trial (T1) the apparatus contained two identical objects (samples). A rat was always placed in the apparatus facing the wall at the middle of the front (transparent) segment. After the first exploration period the rat was put back in its home cage. Subsequently, after a predetermined delay interval, the rat was put back in the apparatus for the second trial (T2), but now with two dissimilar objects, a familiar one (the sample) and a new object. The times spent in exploring each object during T1 and T2 were recorded manually with a personal computer. “Exploration” was defined as directing the nose to the object at a distance of no more than 2 cm and/or touching the object with the nose. Sitting on the object was not considered as exploratory behavior. In order to avoid the presence of olfactory trails the objects were always thoroughly cleaned. […]
Rats were treated with Compound 18 (0.3, 1, 3 mg/kg po) or Compound 3 (0.1, 0.3, 1 and 3 mg/kg i.p.) 90 or 60 mins prior to administration of scopolamine (0.1 mg/kg ip). The time each animal spent investigating the novel and familiar objects in the arena during a over a 3 min interval, commencing 30 minutes after the administration of scopolamine, was scored. […]

[4] = biological target: T3, Histamine H1 receptor (Cavia porcellus, UniProt P31389); assay: Affinity to Histamine H1 receptor in guinea-pig cerebellum; format: binding; settings: read-out: Receptor Affinity (pKi) Histamine H1 (converted)
T3 construct: from tissue; host or cells: guinea-pig cerebellum

[5] = biological target: T4, human 5-HT6 (Homo sapiens, UniProt P50406); assay: Competition binding with [3H]-LSD at membranes of HEK-293 cells expressing human 5-HT6
T4 construct: expressed in transfected cells; host or cells: HEK-293 (HEK293-h5-HT6)
Method: All test and control compounds were dissolved in 100% DMSO at 10 mM and diluted as indicated in aqueous assay buffer. K1 values are presented at the mean and standard deviation of 3 separate determinations each consisting of the compound tested at each concentration in duplicate.

[6] = biological target: T5, human recombinant 5-HT2C (Homo sapiens, UniProt P28335); assay: Receptor affinity at 5-HT2C (Table 1; only a FLIPR calcium method is described); format: binding
T5 sequence (P28335 33-458): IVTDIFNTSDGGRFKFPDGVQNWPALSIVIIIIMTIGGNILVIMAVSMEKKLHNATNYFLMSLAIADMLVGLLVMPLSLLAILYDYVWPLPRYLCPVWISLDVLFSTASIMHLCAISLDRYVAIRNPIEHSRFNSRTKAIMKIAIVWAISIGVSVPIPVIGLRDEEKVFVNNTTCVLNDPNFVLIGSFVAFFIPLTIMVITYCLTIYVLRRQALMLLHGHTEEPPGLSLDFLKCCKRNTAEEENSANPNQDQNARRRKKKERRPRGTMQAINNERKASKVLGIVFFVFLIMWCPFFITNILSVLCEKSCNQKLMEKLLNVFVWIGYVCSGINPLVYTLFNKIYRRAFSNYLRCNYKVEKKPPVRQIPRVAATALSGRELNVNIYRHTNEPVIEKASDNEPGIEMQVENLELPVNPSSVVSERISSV

[7] = biological target: human recombinant 5-HT2A (Homo sapiens, UniProt P28223); assay: Receptor affinity at 5-HT2A (Table 1; only a FLIPR calcium method is described); format: binding; settings: read-out: Receptor Affinity (pKi) 5-HT2A (converted)
[8] = biological target: human recombinant D2 receptor (Homo sapiens, UniProt P14416); assay: Ligand binding affinity at Dopamine D2 receptor; settings: read-out: Receptor Affinity (pKi) Dopamine D2 (converted)
[9] = system: rat brain hippocampal slices (CA1 region); assay: Long term potentiation in rat hippocampal slices (CA1), fEPSP; format: cell-based; settings: weak tetanus 50 Hz, 500 ms; room temperature
[10] = [3H]-LSD, HEK293-h5-HT6 membranes, read-out: Receptor Affinity (pKi) 5-HT6 (converted)
[11] = read-out: Receptor Affinity (pKi) 5-Ht2C (converted)

T4 sequence (P50406 whole entry): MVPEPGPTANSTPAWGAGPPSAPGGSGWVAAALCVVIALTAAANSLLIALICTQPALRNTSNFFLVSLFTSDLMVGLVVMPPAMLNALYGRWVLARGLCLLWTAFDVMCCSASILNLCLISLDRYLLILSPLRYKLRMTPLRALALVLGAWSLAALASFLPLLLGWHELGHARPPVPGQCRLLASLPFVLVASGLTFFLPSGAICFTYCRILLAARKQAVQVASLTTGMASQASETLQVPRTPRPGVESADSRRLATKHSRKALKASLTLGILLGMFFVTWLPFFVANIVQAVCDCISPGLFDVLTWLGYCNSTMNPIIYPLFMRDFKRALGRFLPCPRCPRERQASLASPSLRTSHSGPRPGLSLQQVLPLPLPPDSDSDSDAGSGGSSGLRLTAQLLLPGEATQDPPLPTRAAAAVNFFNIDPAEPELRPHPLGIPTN
human recombinant 5-HT2A, sequence (P28223 whole entry): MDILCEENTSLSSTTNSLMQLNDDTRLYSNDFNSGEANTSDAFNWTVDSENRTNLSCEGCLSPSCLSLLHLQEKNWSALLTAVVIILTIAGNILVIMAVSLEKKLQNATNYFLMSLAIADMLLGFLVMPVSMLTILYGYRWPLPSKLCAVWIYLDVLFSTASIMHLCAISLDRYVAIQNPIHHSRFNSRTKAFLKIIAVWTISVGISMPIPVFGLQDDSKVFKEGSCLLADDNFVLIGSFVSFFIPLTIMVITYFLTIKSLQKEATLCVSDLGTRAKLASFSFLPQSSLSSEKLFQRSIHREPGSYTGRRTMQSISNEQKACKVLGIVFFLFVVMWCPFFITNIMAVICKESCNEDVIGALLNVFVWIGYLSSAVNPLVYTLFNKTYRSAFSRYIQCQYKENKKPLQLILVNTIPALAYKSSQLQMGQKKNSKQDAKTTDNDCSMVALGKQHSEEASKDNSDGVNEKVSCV
T3 sequence (P31389 whole entry): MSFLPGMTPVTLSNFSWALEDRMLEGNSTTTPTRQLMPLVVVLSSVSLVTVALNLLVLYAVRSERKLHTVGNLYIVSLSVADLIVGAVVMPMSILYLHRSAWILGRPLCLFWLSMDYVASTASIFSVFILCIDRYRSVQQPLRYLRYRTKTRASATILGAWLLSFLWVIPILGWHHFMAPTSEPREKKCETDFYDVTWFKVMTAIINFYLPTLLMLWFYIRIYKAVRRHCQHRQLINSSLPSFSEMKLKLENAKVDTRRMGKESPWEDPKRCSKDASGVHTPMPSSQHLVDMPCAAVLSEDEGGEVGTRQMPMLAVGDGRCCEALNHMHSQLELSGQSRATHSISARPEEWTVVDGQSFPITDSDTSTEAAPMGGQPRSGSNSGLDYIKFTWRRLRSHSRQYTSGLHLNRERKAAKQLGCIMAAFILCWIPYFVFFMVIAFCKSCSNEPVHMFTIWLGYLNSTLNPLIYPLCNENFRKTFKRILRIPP
human recombinant D2 receptor, sequence (P14416 whole entry): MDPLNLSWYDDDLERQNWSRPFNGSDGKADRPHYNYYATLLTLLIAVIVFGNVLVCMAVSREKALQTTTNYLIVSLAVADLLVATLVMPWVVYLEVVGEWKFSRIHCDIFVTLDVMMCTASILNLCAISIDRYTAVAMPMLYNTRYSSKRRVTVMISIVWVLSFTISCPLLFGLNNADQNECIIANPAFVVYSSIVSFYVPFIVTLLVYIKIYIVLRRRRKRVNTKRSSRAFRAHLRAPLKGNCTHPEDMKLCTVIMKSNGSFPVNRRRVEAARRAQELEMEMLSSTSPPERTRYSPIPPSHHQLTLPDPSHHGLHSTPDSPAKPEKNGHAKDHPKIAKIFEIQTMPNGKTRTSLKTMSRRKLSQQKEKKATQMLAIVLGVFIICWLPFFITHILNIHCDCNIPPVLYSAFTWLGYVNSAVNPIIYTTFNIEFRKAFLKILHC

Row | Compound | Ki [1] [nM] | Ki [2] [nM] | reversal of the memory impairment induced by scopolamine (discrimination index d2) ([3]; 0.3 mg/kg i.p.) | Ki [4] [nM] | Ki [5] [nM] | Ki [6] [nM] | Ki [7] [nM] | Ki [8] [nM] | reversal of the memory impairment induced by scopolamine (discrimination index d2) ([3]; 0.3 mg/kg po) | reversal of the memory impairment induced by scopolamine (discrimination index d2) ([3]; 1 mg/kg po) | reversal of scopolamine-induced memory impairment (discrimination index d2) ([3]; 3 mg/kg ip) | Ki [5, 10] [nM] | Ki [6, 11] [nM] | long term potentiation, increase in slope of fEPSP relative to pre-tetanus baseline [9] | reversal of scopolamine-induced memory impairment (discrimination index d2) ([3]; 0.3 mg/kg ip)
1 | O=C1COc2c(N3CCNCC3)cccc2N1Cc1ccccc1 [Compound 3, 4-benzyl-8-piperazin-1-yl-4H-benzo[1,4]oxazin-3-one] | > 1000 | > 1000 | statistically significant reversal | > 1000 | 0.158 | 63.1 | 1.26 | > 1000 | – | – | – | – | – | – | –
2 | O=C1NCc2c(N3CCNCC3)cccc2N1Cc1cccc(F)c1 [Compound 18, 1-(3-Fluoro-benzyl)-5-piperazin-1-yl-3,4-dihydro-1H-quinazolin-2-one] | > 1000 | > 1000 | – | > 1000 | 0.631 | 63.1 | 2 | > 1000 | statistically significant reversal | statistically significant reversal | – | – | – | – | –
3 | CN1CCN(c2cccc3c(S(=O)(=O)c4ccccc4)c[nH]c23)CC1 [Compound 32, 3-phenylsulfonyl-7-(4-methyl-piperazin-1-yl)-1H-indole] | > 316 | > 316 | – | > 316 | – | – | 79.4 | > 1000 | – | – | Statistically significant reversal | 0.316 | 158 | – | –
4 | N=C(N)NCC1CCCc2cc(S(=O)(=O)c3ccccc3)ccc21 (stereo not drawn) [Compound 52, N-(6-Phenylsulfonyl-1,2,3,4-tetrahydro-naphthalen-1-ylmethyl)-guanidine] | > 1000 | > 1000 | – | > 1000 | – | – | 794 | > 1000 | – | – | – | 1.26 | 1000 | – | –
5 | O=c1[nH]c2c(N3CCNCC3)cccc2n1Cc1ccccc1 [Compound 64, 1-Benzyl-4-piperazin-1-yl-1,3-dihydro-benzoimidazol-2-one] | 200 | > 316 | – | > 316 | 0.251 | – | 25.1 | > 1000 | – | – | – | – | 631 | – | –
6 | COc1cccc([C@H](O)C2CCN(CCc3ccc(F)cc3)CC2)c1OC [MDL-100907, R-α-(2,3-dimethoxyphenyl)-1-[2-(4-fluorophenyl)ethyl]-4-piperidinemethanol, reference compound] | – | – | – | – | – | – | – | – | – | – | – | – | – | Increase in long term potentiation | Statistically significant reversal
7 | CN(C)CCO/N=C(/C=C/c1ccc(O)cc1)c1ccccc1F [SR46349B, (1Z,2E)-1-(2-fluorophenyl)-3-(4-hydroxyphenyl)prop-2-en-1-one-O-(2-dimethylaminoethyl)oxime, reference compound] | > 316 | > 1000 | – | > 1000 | – | 100 | 1 | > 1000 | – | – | – | > 1000 | – | – | –
